Data set [1] addresses T1, human DGAT2 (Homo sapiens, UniProt Q96PD7).
T1 sequence (Q96PD7 1-388): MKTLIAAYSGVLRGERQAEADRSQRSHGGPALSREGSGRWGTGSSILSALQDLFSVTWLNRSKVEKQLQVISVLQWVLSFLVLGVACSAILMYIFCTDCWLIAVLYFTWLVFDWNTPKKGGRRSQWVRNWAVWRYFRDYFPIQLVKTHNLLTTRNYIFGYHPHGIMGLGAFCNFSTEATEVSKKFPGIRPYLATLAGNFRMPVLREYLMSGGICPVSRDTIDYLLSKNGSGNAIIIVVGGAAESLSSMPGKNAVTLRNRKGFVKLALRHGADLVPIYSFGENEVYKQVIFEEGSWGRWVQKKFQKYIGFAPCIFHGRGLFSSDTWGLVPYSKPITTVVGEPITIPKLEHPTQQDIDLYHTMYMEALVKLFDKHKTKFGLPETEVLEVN
The experiment in a line: Diacylglycerol Acyltransferase 2 (DGAT2) Cell-Based Assay (HepG2). Also noted: This assay uses human hepatoma cell-line, HepG2, as a source of acyltransferase activity; endogenous in cells; host or cells: HepG2. The conditions noted are these: geometric mean; HepG2 cells, incorporation of 13C18-oleate into triolein normalized to POPC; read-out: IC50 (nM) mean ± SD, (n) = number of experiments. How it is done:
The inhibitory activity of compounds against human DGAT2 in a cell environment is evaluated in this assay. This assay uses human hepatoma cell-line, HepG2, as a source of acyltransferase activity.
HepG2 cell line is a commonly used model for metabolic reactions that occur in human hepatocytes in vivo. Synthesis of triglyceride in this cell line is followed by measuring incorporation of isotopically labeled oleate into triolein (a triglyceride with 3 oleoyl moieties).
Dispense the HepG2 cells into a 96-well microplate, which has been previously coated with Poly-D-lysine, in an amount of 50,000 cells/well in 100 μL Minimal Essential Media (MEM) with 10% Fetal Bovine Serum (FBS). Incubate the cells for 16 hr at 37° C. Replace the cell culture medium with MEM containing 2% Bovine Serum Albumin. Dissolve the test compound in 0.5% DMSO and prepare serial dilutions in half-log increments. Add the serially diluted test compound into separate wells. Incubate for 0.5 hr at 37° C. Thereafter replace the cell culture medium with a medium of the same composition, but which includes 50 μM ^13C18-oleate and 300 μM hydropropyl-β-cyclodextrine. Incubate for an additional 4 hr at 37° C. Discard the cell culture medium by flipping the microplate over thereby draining the wells and then soaking up any residual media from the wells with a paper towel. Dry the microplate at ambient temperature (˜21° C.) for 10 min. Add aliquots of 125 μL of solvent (isopropyl alcohol:tetrahydrofuran:methanol:chloroform, in a ratio of 90:10:2.5:2.5 v/v), an internal standard for phosphatidylcholine (PC), and an internal standard for triacylglycerol (TG) to each well. Seal and shake the plate for 30 min at ambient temperature. Transfer 100 μL aliquots of the upper phase of each well into a wells of a deep-well plate (2 mL per well). Analyze the contents of the wells using mass-spectrometry analysis. Measure both triolein with a single ^13C18-oleate moiety and POPC using liquid chromatography/mass spectroscopy method (LC/MS). The degree of incorporation of a single ^13C18-oleate moiety into triolein, normalized to the concentration of 1-palmitoyl-2-oleoyl-phosphatidylcholine (POPC) is used as a measure of DGAT2 activity.
Determine the IC50 for each compound, using a 4 parameter logistic curve fit.

Data set [2] concerns the target T1, human DGAT2. The experiment in a line: Diacylglycerol Acyltransferase 2 (DGAT2) Biochemical Assay. The conditions noted are these: geometric mean; recombinant human DGAT2 with FLAG tag, 1 hr at RT, 14C oleoyl-CoA; read-out: IC50 (nM), ± SD, (n) = number of experiments. How it is done: The in vitro inhibitory activity of compounds against human DGAT2 is evaluated in this assay. The assay uses recombinant human DGAT2 with a FLAG tag at the amino terminus, expressed in genetically engineered insect SF9 cells, and purified through affinity chromatography.
DGAT2 catalyzes transfer of an acyl moiety from acyl-Coenzyme A onto diacylglycerol, to form triacylglycerol. In this particular embodiment of the assay oleate is used as the acyl moiety that is transferred. To facilitate miscibility of all lipid components, all lipids used in the assay contain oleyl moiety as the only acyl group.
Prior to starting the assay prepare a mixture of dioleoyl glycerol (DOG) and dioleoyl phosphatidylcholine (DOPC) at 3:7 molar ratio. Mix appropriate amount of DOPC and DOG dissolved in chloroform in a borosilicate glass test tube. Evaporate the solvent under stream of argon to form a film of lipid. Subsequently, place the test-tube under vacuum (<1 Torr) for 2 hrs to remove residual solvent. Add appropriate amount of buffer containing TrisHCl (pH 7.5, 150 mM), and sucrose (250 mM) to achieve 20 mM concentration of total lipid. Assure complete suspension of the lipid film by vigorous vortexing. Sonicate the contents of the tube in a water bath sonicator under standing wave conditions until the suspension turns from turbid to translucent, to assure conversion of liposomes into small unilamellar vesicles (SUVs)
Prepare the test compound by dissolving it and serially diluting in half-log increments in DMSO. For each concentration, perform 10-fold step dilution of compound solution in DMSO into buffer containing TrisHCl (pH 7.5, 150 mM), and sucrose (250 mM).
Mix SUV suspensions and compound solution with other components of the assay to achieve the following concentration of individual ingredients: TrisHCl (pH 7.5, 150 mM), sucrose (250 mM), MgCl2 (5 mM,), dithiothreitol (DTT) (0.5 mM), oleoyl coenzyme A (oleoyl-CoA) (12 μM), 1-^14C oleoyl coenzyme A (oleyl-CoA-^14C) (8 μM), dioleoyl glycerol (DOG) (0.6 mM), and dioleoyl phosphatidylcholine (DOPC) (1.4 mM), DGAT2 protein (0.5 nM), DMSO (1%, v/v), with test compound concentration within a 1 nM to 100 μM range, in 30 μl total volume. Incubate the reaction for 1 hr at RT (approximately 21° C.) in individual wells of a 384-well plate. After 1 hr, stop the reaction by adding 23 μl stop solution containing a mixture of isopropanol:EtOH:heptane:DI water: 1 N NaOH (59:12.5:15:11:2.5, by volume). Add 42 μL Microscint E and then incubate mixture overnight to extract the triglyceride into the organic solvent layer containing scintillant. Measure the radioactivity using a Perkin-Elmer TopCount instrument. […] Calculate the degree of inhibition of DGAT2 by measuring the radioactivity at 10 different concentrations for each compound. […]

Data set [3] concerns plasma triglycerides. The experiment in a line: In Vivo Pharmacodynamic Assay: reduction in plasma triglycerides in mice. The settings on record: Mus musculus, po; male C57BL6 mice, gavage, with 3 mg/kg DGAT1 inhibitor and tyloxapol; reduction in plasma triglycerides vs control; read-out: ED50 (mg/kg) SD. How it is done:
This assay measures the potency of compounds by measuring the reduction in plasma triglycerides in mice treated with the test compounds compared to control animals that are treated only with the vehicle solution. Male, C57BL6 mice (10-11 weeks old, each approximately 22 g in weight) are used in this assay.
Triglycerides synthesized in the liver are secreted into circulation as a component of the Very Low Density Lipoprotein (VLDL). To prevent degradation of triglycerides in circulation by the Lipoprotein Lipase (LPL), this assay uses IV injection of a detergent, tyloxapol, which inhibits activity of LPL. Since another enzyme, DGAT1, participates in the synthesis of liver triglyceride, a saturating dose of a DGAT1 inhibitor (sodium {trans-4-[4-(4-amino-7,7-dimethyl-7H-pyrimido[4,5-b][1,4]oxazin-6-yl)phenyl]cyclohexyl}acetate, IUPAC ACDLABS naming convention, see Dow et al. Bioorg. & Med. Chem., (2011) 21(20), 6122-6128) is also used in this assay. […]
Collect the blood via cardiac puncture into tube containing the anti-coagulant EDTA. […] Freeze the plasma samples on dry ice until they are to be analyzed. […] Reduction in total triglycerides in the test mice is calculated relative to the concentration of triglycerides in the control mice.

Data set [4] relates to LDL-c, VLDL-c and TG serum concentrations. The data set is described as follows: In Vivo Efficacy Model: LDL-c, VLDL-c and TG in LDL receptor-deficient mice. The conditions noted are these: 30 mg/kg bid, fourteen days, oral gavage, vs control group. The text has this:
The compounds described herein can be evaluated in an in vivo efficacy model. This assay measures the potency of compounds by measuring the reduction in low density lipoprotein cholesterol (LDL-c), very low density lipoprotein cholesterol (VLDL-c), and triglycerides (TG). Male, LDL receptor-deficient mice (29 weeks old, each approximately 30 g in weight) are used in this assay.
Feed the mice a standard mouse chow diet for two weeks prior to dosing. Prepare a test solution for oral gavage by suspend the compounds in acacia at 0.3, 1, and 3 mg/mL. Separate the mice into a test group and a control group. Thereafter at the first day of the third week dose the mice in the test group with the test solution for fourteen days, BID. Similarly dose the mice in the control group with just the vehicle without any of the test compound. Four hours after the last dose euthanize the mice with CO2. Immediately collect the blood via cardiac puncture. Isolate the serum to measure serum triglycerides as well as cholesterol in individual lipoprotein fractions. Separate the lipoprotein fractions by known HPLC methods. Determine the cholesterol concentration associated with each lipoprotein fraction by a colorimetric method (Roche Cholesterol/HP Reagent 11875540), using isolated lipoprotein fractions with known cholesterol concentration as standards. Results obtained at the highest dose, can be expressed as the percentage of change in comparison of the LDL-c, VLDL-c and TG serum concentrations of mice in the test group to those of mice n the control group.
The results for the compound of Example 24 at 30 mg/kg bid are listed below in Table 21.

The conditions of data set [5]: therapy with lomitapide; cited from earlier work.

Each structure is given as a SMILES string.

This is an account of results in US20180162825A1, “NOVEL DGAT2 INHIBITORS” (Eli Lilly and Company, priority 2015, published 2018).

As a reminder, the IC50 is the midpoint of a concentration-inhibition curve. Take `CN1CCN(c2nc(CNc3ncc(Cl)cn3)cc(Oc3ccc(CS(N)(=O)=O)cc3)n2)CC1` [Example 24, [4-[6-[[(5-Chloropyrimidin-2-yl)amino]methyl]-2-(4-methylpiperazin-1-yl)pyrimidin-4-yl]oxyphenyl]methanesulfonamide]: the IC50 in data set [1] turned out to be 9 ± 6 nM. For the same compound, the IC50 in data set [2] amounted to 579 ± 169 nM. In addition, the ED50 in data set [3] is 0.8 ± 0.09 mg/kg. In data set [4], the LDL-c % change is recorded as −61%, the Triglycerides % change is given as −56% and the VLDL-c % change is reported as −74%.

As to `CCc1cnc(NCc2cc(Oc3ccc(CCNS(C)(=O)=O)cc3)nc(N)n2)nc1` [Example 57, N-[2-[4-[2-Amino-6-[[(5-ethylpyrimidin-2-yl)amino]methyl]pyrimidin-4-yl]oxyphenyl]ethyl]methanesulfonamide], the IC50 in data set [1] came out at 53 nM; in data set [2] it was 103 ± 51 nM. Moreover, the ED50 in data set [3] amounted to 0.23 ± 0.03 mg/kg.

For the compound `CNS(=O)(=O)Cc1ccc(Oc2cc(CNc3ncc(Cl)cn3)nc(C(F)(F)F)n2)cc1` [Example 10, 1-[4-[6-[[(5-Chloropyrimidin-2-yl)amino]methyl]-2-(trifluoromethyl)pyrimidin-4-yl]oxyphenyl]-N-methyl-methanesulfonamide], the figures for the IC50 in data set [1] and in data set [2] were 17 ± 1 nM and 52 ± 27 nM, respectively.

Take `CCc1cnc(NCc2ccnc(Oc3ccc(CS(N)(=O)=O)cc3F)c2)nc1` [Example 7, [4-[[4-[[(5-ethylpyrimidin-2-yl)amino]methyl]-2-pyridyl]oxy]-3-fluoro-phenyl]methanesulfonamide]: the half-inhibitory concentration (IC50) stood at 36 ± 1 nM in data set [1] and 27 ± 15 nM in data set [2].

Consider `O=C(NC1CCN(CCCCC2(C(=O)NCC(F)(F)F)c3ccccc3-c3ccccc32)CC1)c1ccccc1-c1ccc(C(F)(F)F)cc1` [lomitapide], for which the “increase in the liver fat content” value in data set [5] is reported as 8 fold.
